Measured values: patent US20240199613A1 (TAKEDA PHARMACEUTICAL COMPANY LIMITED, priority 2021, published 2024)

Experiments:
[1] = molecular target: human activated kallikrein enzyme (Homo sapiens, UniProt P03952); experiment: Inhibition of activated plasma kallikrein, fluorogenic peptide substrate (PFR-AMC) assay, 500 pM enzyme format; format: biochemical; settings: 500 pM activated kallikrein, 300 uM PFR-AMC, 30 min preincubation, 10 min reaction, room temperature; read-out: Primary Dose Response Assay: Average EC50
Sequence of human activated kallikrein enzyme (P03952 391-638 limits assumed): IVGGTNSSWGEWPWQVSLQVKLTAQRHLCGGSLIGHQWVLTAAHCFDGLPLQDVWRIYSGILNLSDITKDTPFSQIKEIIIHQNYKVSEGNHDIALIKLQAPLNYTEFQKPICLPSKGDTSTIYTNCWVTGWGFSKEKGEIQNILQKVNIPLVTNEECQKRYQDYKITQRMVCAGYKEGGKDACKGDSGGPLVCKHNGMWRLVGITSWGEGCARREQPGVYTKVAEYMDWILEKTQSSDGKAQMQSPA
Sequence of human activated kallikrein enzyme (P03952 20-390 partner limits assumed): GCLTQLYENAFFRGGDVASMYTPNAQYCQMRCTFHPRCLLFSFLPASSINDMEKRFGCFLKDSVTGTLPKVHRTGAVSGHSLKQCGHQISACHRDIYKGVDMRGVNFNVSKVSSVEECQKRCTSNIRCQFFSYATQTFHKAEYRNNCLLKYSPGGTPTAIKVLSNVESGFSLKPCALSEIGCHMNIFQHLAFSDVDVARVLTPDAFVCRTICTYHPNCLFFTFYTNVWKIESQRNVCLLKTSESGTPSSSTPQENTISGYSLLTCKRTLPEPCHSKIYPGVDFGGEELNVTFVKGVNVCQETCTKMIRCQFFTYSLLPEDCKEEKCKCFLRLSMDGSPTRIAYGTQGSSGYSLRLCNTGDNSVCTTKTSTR
Summary of the method: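 500 pM enzyme preincubated 30 min at room temperature with inhibitor in 20 mM Tris pH 7.5, 150 mM NaCl, 1 mM EDTA, 0.1% PEG-400, 0.1% Triton X-100. Reaction started with 300 uM PFR-AMC and run 10 min at room temperature. Fluorescence read at 380 nm excitation/460 nm emission.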

[2] = molecular target: T1, plasma kallikrein (Homo sapiens, UniProt P03952); experiment: Neat human plasma assay: contact pathway-activated (FXIIa) plasma, PFR-AMC substrate; format: biochemical; settings: citrated human plasma (78% final), 10 nM human FXIIa, 100 μM PFR-AMC, room temperature
T1 construct: from tissue; host or cells: sodium citrate collected human plasma (78% final)
T1 sequence (P03952 391-638 limits assumed): as the sequence (P03952 391-638 limits assumed) above
T1 sequence (P03952 20-390 partner limits assumed): as the sequence (P03952 20-390 partner limits assumed) above
Description: To analyze inhibition of plasma kallikrein in an ex vivo setting, the potency of compounds was measure in contact pathway-activated plasma assays. In a fluorogenic peptide substrate assay, test compounds dissolved in DMSO were added to sodium citrate collected human or rat plasma in a 96-well microplate. Alternatively, citrated plasma was collected from rats administered the compounds orally or by IV. 10 nM of human FXIIa (Enzyme Research Laboratories) diluted in pKal buffer (20 mM Tris-HCl, pH 7.5, 150 mM NaCl, 1 mM EDTA, 0.1% PEG-8000, and 0.1% Triton X-100) was added to the plasma, followed by the 100 μM of the profluorescent, synthetic plasma kallikrein substrate PFR-AMC (also diluted in pKal buffer). Final plasma concentration in the reaction was 78%. Fluorescence was immediately monitored by excitation/emission wavelengths of 360 nm/480 nm respectively over a period of 5 minutes in a microplate reader. The resulting linear increase in fluorescence emission (reflecting pKal proteolysis of PFR-AMC substrate) was fit to extract a proteolytic rate (fluorescent units over time), and this rate was subsequently plotted against compound inhibitor concentration. Resulting plots were fit to a standard 4-parameter IC50/IC90 equation to determine min/max values, IC50/90, and slope. All experimental steps were performed at room temperature.

| EC50 [1] [nM] | IC90 [2] [nM] | SMILES |
| --- | --- | --- |
| ≤ 1 | ≤ 400 | Cc1ccnc([C@H]2C[C@@H]2C2=CS(=O)(=O)c3cnc(NCc4cn5cc(C6CC6)cc(N6CC(=O)N(C)C6=O)c5n4)cc3N2)n1 (racemic) [Example 79, rac-1-(6-cyclopropyl-2-(((2-((1S*,2S*)-2-(4-methylpyrimidin-2-yl)cyclopropyl)-4,4-dioxido-1H-pyrido[3,4-b][1,4]thiazin-7-yl)amino)methyl)imidazo[1,2-a]pyridin-8-yl)-3-methylimidazolidine-2,4-dione] |
| ≤ 1 | 1500 to 10000 | Cc1ccnc([C@H]2C[C@@H]2C2=NS(=O)(=O)c3ccc(N(C)Cc4cn5cc(C6CC6)ccc5n4)cc3N2)n1 (racemic) [Example 80, rac-6-(((6-cyclopropylimidazo[1,2-a]pyridin-2-yl)methyl)(methyl)amino)-3-((1S*,2S*)-2-(4-methylpyrimidin-2-yl)cyclopropyl)-4H-benzo[e][1,2,4]thiadiazine 1,1-dioxide] |
| ≤ 1 | 1500 to 10000 | Cc1ccnc([C@H]2C[C@@H]2c2ccc3ccc(NCc4cn5cc(C6CC6)cc(N6CC(=O)NC6=O)c5n4)cc3n2)n1 (racemic) [Example 81, rac-1-(6-cyclopropyl-2-(((2-((1S*,2S*)-2-(4-methylpyrimidin-2-yl)cyclopropyl)quinolin-7-yl)amino)methyl)imidazo[1,2-a]pyridin-8-yl)imidazolidine-2,4-dione] |
| 1 to 10 | 1500 to 10000 | Cc1ccnc([C@H]2C[C@@H]2c2ccc3c(C#N)cc(NCc4cn5cc(C6CC6)cc(N6CC(=O)N(C)C6=O)c5n4)cc3n2)n1 (racemic) [Example 82, rac-7-(((6-cyclopropyl-8-(3-methyl-2,4-dioxoimidazolidin-1-yl)imidazo[1,2-a]pyridin-2-yl)methyl)amino)-2-((1S*,2S*)-2-(4-methylpyrimidin-2-yl)cyclopropyl)quinoline-5-carbonitrile] |
| ≤ 1 | 1500 to 10000 | COc1cc2ccc([C@H]3C[C@@H]3c3nccc(C)n3)nc2cc1NCc1cn2cc(C3CC3)cc(N3CC(=O)N(C)C3=O)c2n1 (racemic) [Example 84, rac-1-(6-cyclopropyl-2-(((6-methoxy-2-((1S*,2S*)-2-(4-methylpyrimidin-2-yl)cyclopropyl)quinolin-7-yl)amino)methyl)imidazo[1,2-a]pyridin-8-yl)-3-methylimidazolidine-2,4-dione] |
| ≤ 1 | 1500 to 10000 | Cc1ccnc([C@H]2C[C@@H]2c2cc(CC#N)c3ccc(NCc4cn5cc(C6CC6)cc(N6CC(=O)N(C)C6=O)c5n4)cc3n2)n1 (racemic) [Example 85, rac-2-(7-(((6-cyclopropyl-8-(3-methyl-2,4-dioxoimidazolidin-1-yl)imidazo[1,2-a]pyridin-2-yl)methyl)amino)-2-((1S*,2S*)-2-(4-methylpyrimidin-2-yl)cyclopropyl)quinolin-4-yl)acetonitrile] |
| ≤ 1 | 1500 to 10000 | Cc1ccnc([C@H]2C[C@@H]2c2cc(O)c3cnc(NCc4cn5cc(C6CC6)cc(N6CC(=O)N(C)C6=O)c5n4)nc3n2)n1 (racemic) [Example 86, rac-1-(6-cyclopropyl-2-(((5-hydroxy-7-((1S*,2S*)-2-(4-methylpyrimidin-2-yl)cyclopropyl)pyrido[2,3-d]pyrimidin-2-yl)amino)methyl)imidazo[1,2-a]pyridin-8-yl)-3-methylimidazolidine-2,4-dione] |
| ≤ 1 | 400 to 1500 | Cc1ccnc([C@H]2C[C@@H]2c2ccc3c(N(C)C)cc(NCc4cn5cc(C6CC6)cc(N6CC(=O)N(C)C6=O)c5n4)cc3n2)n1 (racemic) [Example 88, rac-1-(6-cyclopropyl-2-(((5-(dimethylamino)-2-((1S*,2S*)-2-(4-methylpyrimidin-2-yl)cyclopropyl)quinolin-7-yl)amino)methyl)imidazo[1,2-a]pyridin-8-yl)-3-methylimidazolidine-2,4-dione] |
| ≤ 1 | 1500 to 10000 | Cc1ccnc([C@H]2C[C@@H]2C2=NS(=O)(=O)c3cc(Cl)c(NCc4cn5cc(C6CC6)ccc5n4)cc3N2)n1 (racemic) [Example 89, rac-7-chloro-6-(((6-cyclopropylimidazo[1,2-a]pyridin-2-yl)methyl)amino)-3-((1S*,2S*)-2-(4-methylpyrimidin-2-yl)cyclopropyl)-4H-benzo[e][1,2,4]thiadiazine 1,1-dioxide] |
| ≤ 1 | 1500 to 10000 | Cc1ccnc([C@H]2C[C@@H]2C2=NS(=O)(=O)c3ccc(OCc4cn5cc(C6CC6)ccc5n4)cc3N2)n1 (racemic) [Example 92, rac-6-((6-cyclopropylimidazo[1,2-a]pyridin-2-yl)methoxy)-3-((1S*,2S*)-2-(4-methylpyrimidin-2-yl)cyclopropyl)-4H-benzo[e][1,2,4]thiadiazine 1,1-dioxide] |
| ≤ 1 | 400 to 1500 | Cc1ccnc([C@H]2C[C@@H]2c2cc(C(C)(C)O)c3ccc(NCc4cn5cc(C6CC6)cc(N6CC(=O)N(C)C6=O)c5n4)cc3n2)n1 (racemic) [Example 95, rac-1-(6-cyclopropyl-2-(((4-(2-hydroxypropan-2-yl)-2-((1S*,2S*)-2-(4-methylpyrimidin-2-yl)cyclopropyl)quinolin-7-yl)amino)methyl)imidazo[1,2-a]pyridin-8-yl)-3-methylimidazolidine-2,4-dione] |
| 1 to 10 | 400 to 1500 | COc1cc(NCc2cn3cc(C)cc(N4CC(=O)N(C)C4=O)c3n2)cc2nc([C@H]3C[C@@H]3c3nccc(C)n3)ccc12 (racemic) [Example 104, rac-1-(2-(((5-methoxy-2-((1S*,2S*)-2-(4-methylpyrimidin-2-yl)cyclopropyl)quinolin-7-yl)amino)methyl)-6-methylimidazo[1,2-a]pyridin-8-yl)-3-methylimidazolidine-2,4-dione] |
| 1 to 10 | 1500 to 10000 | Cc1ccnc([C@H]2C[C@@H]2c2ccc3ccc(NCc4cn5cc(C6CC6)nc(N6CC(=O)N(C)C6=O)c5n4)cc3n2)n1 (racemic) [Example 106, rac-1-(6-cyclopropyl-2-(((2-((1S*,2S*)-2-(4-methylpyrimidin-2-yl)cyclopropyl)quinolin-7-yl)amino)methyl)imidazo[1,2-a]pyrazin-8-yl)-3-methylimidazolidine-2,4-dione] |
| 1 to 10 | 1500 to 10000 | Cc1ccnc([C@H]2C[C@@H]2c2cc(O)c3ccc(N4C[C@@H](O)C[C@@H]4c4cn5cc(C6CC6)ccc5n4)cc3n2)n1 (relative stereo) [Example 54, rac-7-((2R,4S)-2-(6-cyclopropylimidazo[1,2-a]pyridin-2-yl)-4-hydroxypyrrolidin-1-yl)-2-((1S*,2S*)-2-(4-methylpyrimidin-2-yl)cyclopropyl)quinolin-4-ol] |
| 1 to 10 | 400 to 1500 | COc1cc([C@H]2C[C@@H]2c2nccc(C)n2)nc2cc(N3C[C@@H](O)C[C@@H]3c3cn4cc(C5CC5)cc(N5CC(=O)N(C)C5=O)c4n3)ccc12 (relative stereo) [Example 67, rac-1-(6-cyclopropyl-2-((2R,4S)-4-hydroxy-1-(4-methoxy-2-((1S*,2S*)-2-(4-methylpyrimidin-2-yl)cyclopropyl)quinolin-7-yl)pyrrolidin-2-yl)imidazo[1,2-a]pyridin-8-yl)-3-methylimidazolidine-2,4-dione] |
| 1 to 10 | 1500 to 10000 | Cc1ccnc([C@H]2C[C@@H]2c2ccc3ccc(N4C[C@@H](O)C[C@@H]4c4cn5cc(C6CC6)cc(N6CC(=O)N(C)C6=O)c5n4)cc3n2)n1 (relative stereo) [Example 68, rac-1-(6-cyclopropyl-2-((2R,4S)-4-hydroxy-1-(2-((1S*,2S*)-2-(4-methylpyrimidin-2-yl)cyclopropyl)quinolin-7-yl)pyrrolidin-2-yl)imidazo[1,2-a]pyridin-8-yl)-3-methylimidazolidine-2,4-dione] |
| ≤ 1 | 400 to 1500 | Cc1ccnc(C2CC2c2cc(=O)c3ccc(NCc4cn5cc(C6CC6)cc(N6CC(=O)N(C)C6=O)c5n4)cc3[nH]2)n1 (single isomer, unassigned) [Example 12, 1-(6-cyclopropyl-2-(((2-(2-(4-methylpyrimidin-2-yl)cyclopropyl)-4-oxo-1,4-dihydroquinolin-7-yl)amino)methyl)imidazo[1,2-a]pyridin-8-yl)-3-methylimidazolidine-2,4-dione] |
| 1 to 10 | ≤ 400 | Cc1ccnc(C2CC2c2cc(=O)c3ccc(NCc4cn5cc(C6CC6)cc(N6CC(=O)N(C)C6=O)c5n4)cc3[nH]2)n1 (single isomer, unassigned) [Example 13, 1-(6-cyclopropyl-2-(((2-(2-(4-methylpyrimidin-2-yl)cyclopropyl)-4-oxo-1,4-dihydroquinolin-7-yl)amino)methyl)imidazo[1,2-a]pyridin-8-yl)-3-methylimidazolidine-2,4-dione] |
| ≤ 1 | 1500 to 10000 | Cc1ccnc([C@H]2C[C@@H]2c2ccc3ccc(NCc4cn5cc(C6CC6)cc(N6CC(=O)N(C)C6=O)c5n4)cc3n2)n1 (single isomer, unassigned) [Example 59] |
